Our source for the GI50 and TGI values is PubChem BioAssay (NCI).

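A five-concentration, 48-hour dose response in 96-well plates underlies each endpoint, interpolated linearly between surrounding concentrations. GI50 marks 50% less growth. TGI denotes the concentration required for complete inhibition of growth.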

Among the test systems are A498 renal; BT-549 breast; RPMI-8226 leukemia; SK-MEL-2 melanoma; SK-OV-3 ovarian; SNB-75 CNS; SW-620 colon; T-47D breast.
What all share (assay): NCI-60 cell line screen, 48 h

As for `COc1ccc(/C=c2/sc3n(c2=O)C(c2ccc(OC)c(OC)c2)C2=C(N=3)c3cc(F)ccc3OC2)cc1` (centres undefined), the GI50 is 45.6 µM in the assay with A498 renal; 46.2 µM in the assay on BT-549 breast; over 25 µM in the assay with RPMI-8226 leukemia; over 45.2 µM in the assay on SK-MEL-2 melanoma; over 57 µM in the assay on SK-OV-3 ovarian; 16.1 µM in the assay on SNB-75 CNS. Further, the GI50 with SW-620 colon is 50.5 µM; with T-47D breast, 4.42 µM. The TGI is over 80.9 µM with A498 renal; over 100 µM in the assay with BT-549 breast; 99.7 µM in the assay with RPMI-8226 leukemia; over 92.4 µM in the assay with SK-MEL-2 melanoma; over 100 µM in the assay on SK-OV-3 ovarian; 98.2 µM with SNB-75 CNS. The TGI is over 100 µM with SW-620 colon and 39.6 µM with T-47D breast.

Turning to `CC(C)c1ccccc1S(=O)c1ccccc1C(C)(C)O` (centres undefined), the TGI is 40.8 µM with A498 renal; over 100 µM with BT-549 breast; over 100 µM in the assay with RPMI-8226 leukemia; over 100 µM in the assay on SK-MEL-2 melanoma; over 100 µM in the assay with SK-OV-3 ovarian; over 100 µM in the assay on SNB-75 CNS. In addition, the TGI in the assay with SW-620 colon and with T-47D breast was over 100 µM throughout.

On to `O=C(Nc1ccc(Cl)cc1F)c1cc(Br)ccc1O`, for which the GI50 was 0.23 µM with A498 renal; 0.685 µM in the assay on BT-549 breast; 0.43 µM in the assay on RPMI-8226 leukemia; 0.467 µM with SK-MEL-2 melanoma; 0.763 µM with SK-OV-3 ovarian; 0.468 µM in the assay on SNB-75 CNS. The GI50 is 1.46 µM in the assay with SW-620 colon and 0.56 µM with T-47D breast. Besides, the TGI was 0.709 µM in the assay on A498 renal; 3.01 µM with BT-549 breast; 2.19 µM in the assay on RPMI-8226 leukemia; 3.18 µM in the assay on SK-MEL-2 melanoma; 2.87 µM in the assay on SNB-75 CNS; over 36.2 µM with SW-620 colon. In the assay on T-47D breast, this compound returned a TGI of 4.46 µM.

`COc1ccc(CNc2c3ccccc3nc3ccccc23)cc1OC`: the GI50 in the assay on A498 renal is 1.97 µM; in the assay on BT-549 breast it was 3.15 µM; in the assay on RPMI-8226 leukemia, 2.2 µM; in the assay with SK-MEL-2 melanoma it was 2.28 µM; in the assay on SK-OV-3 ovarian, 2.44 µM; in the assay with SNB-75 CNS, 2.39 µM. For the same compound, the GI50 is 1.69 µM with SW-620 colon and 3.43 µM with T-47D breast. In addition, the TGI in the assay on A498 renal was determined as 4.8 µM; in the assay on BT-549 breast it was 12.2 µM; in the assay on RPMI-8226 leukemia, 5.59 µM; with SK-MEL-2 melanoma, 6.4 µM; in the assay on SK-OV-3 ovarian it was 8.33 µM; in the assay on SNB-75 CNS, 11.3 µM. The values for the TGI in the assay on SW-620 colon and in the assay with T-47D breast were 10.1 µM and 14.1 µM, respectively.

As for `CN(C)c1ccc2nc3ccc(=O)cc-3sc2c1`, the GI50 with A498 renal is 11 µM; in the assay on BT-549 breast, 0.712 µM; in the assay on RPMI-8226 leukemia, 0.199 µM; in the assay with SK-MEL-2 melanoma, 3.51 µM; in the assay on SK-OV-3 ovarian, 6.02 µM; in the assay with SNB-75 CNS, 11.7 µM. Besides, the results for the GI50 in the assay with SW-620 colon and with T-47D breast were 1.36 µM and 1 µM, respectively. Also, the TGI was over 92.8 µM in the assay on A498 renal; over 100 µM in the assay with BT-549 breast; 53 µM in the assay with RPMI-8226 leukemia; 25.8 µM in the assay on SK-MEL-2 melanoma; over 100 µM in the assay with SK-OV-3 ovarian; over 100 µM in the assay with SNB-75 CNS. Moreover, the TGI in the assay on SW-620 colon and in the assay on T-47D breast was over 100 µM in each case.

`O=C(O)Cc1c(O)ccc2ccccc12`: the TGI in the assay on A498 renal, in the assay on BT-549 breast, in the assay with RPMI-8226 leukemia, in the assay on SK-MEL-2 melanoma, with SK-OV-3 ovarian and with SNB-75 CNS was over 100 µM throughout. Besides, the TGI in the assay on SW-620 colon and in the assay with T-47D breast was over 100 µM throughout.

`Cc1c(C2Nc3ccccc3C2C)[nH]c2ccccc12` (centres undefined): the GI50 is 10.7 µM with A498 renal; 13.8 µM in the assay on BT-549 breast; 5.29 µM in the assay with RPMI-8226 leukemia; 13.1 µM with SK-OV-3 ovarian; 5.06 µM with SNB-75 CNS; 2.33 µM in the assay with SW-620 colon. For the same compound, the GI50 with T-47D breast is 6.16 µM. The TGI in the assay on A498 renal came out at 23.1 µM; in the assay with BT-549 breast, 34.5 µM; with RPMI-8226 leukemia it was 52.3 µM; in the assay with SK-OV-3 ovarian, 29.9 µM; in the assay with SNB-75 CNS, 29.8 µM; with SW-620 colon, 32.7 µM. Further, in the assay with T-47D breast, the TGI was 24 µM.

On to `CC(=O)Oc1ccc(Nc2c3ccccc3nc3ccccc23)cc1`, for which the GI50 with A498 renal was 0.322 µM; with BT-549 breast, 2.77 µM; in the assay with RPMI-8226 leukemia, 2.25 µM; in the assay with SK-MEL-2 melanoma, 1.8 µM; with SK-OV-3 ovarian, 1.47 µM; in the assay on SNB-75 CNS it was 0.544 µM. For the same compound, the GI50 in the assay on SW-620 colon is 0.747 µM; in the assay with T-47D breast, 1.72 µM. The TGI with A498 renal stood at 1.88 µM; in the assay on BT-549 breast, 13.5 µM; with RPMI-8226 leukemia it was 23.7 µM; in the assay with SK-MEL-2 melanoma it was 3.79 µM; with SK-OV-3 ovarian, 5.91 µM; with SNB-75 CNS it was 5.08 µM. Also, the TGI in the assay with SW-620 colon turned out to be 2.58 µM; in the assay on T-47D breast, 7.23 µM.

In the case of `COc1ccc(-n2cc(-c3ccc(Cl)c(Cl)c3)nc2SCc2cccc(C#N)c2)cc1`, the GI50 is 12.6 µM with A498 renal; 21.4 µM in the assay on BT-549 breast; over 100 µM with RPMI-8226 leukemia; over 100 µM with SK-MEL-2 melanoma; 26.2 µM with SK-OV-3 ovarian; 17 µM in the assay with SNB-75 CNS. The GI50 in the assay on SW-620 colon is 60 µM; with T-47D breast, 5.33 µM. The TGI is 44.5 µM in the assay with A498 renal; over 100 µM with BT-549 breast; over 100 µM in the assay with RPMI-8226 leukemia; over 100 µM in the assay with SK-MEL-2 melanoma; over 100 µM in the assay with SK-OV-3 ovarian; 53.4 µM in the assay with SNB-75 CNS. The TGI was over 100 µM in the assay on SW-620 colon and 74 µM in the assay on T-47D breast.

As for `O=C(Nc1cccc(Cl)c1Cl)c1cccc(NC2=C(Cl)C(=O)N(Cc3ccccc3)C2=O)c1`, the GI50 with A498 renal was 36.1 µM; in the assay on BT-549 breast, 15.7 µM; with RPMI-8226 leukemia it was 7.96 µM; with SK-MEL-2 melanoma, 16.9 µM; in the assay on SK-OV-3 ovarian, over 100 µM; in the assay with SNB-75 CNS, over 100 µM. Also, the GI50 in the assay on SW-620 colon was 20.1 µM; with T-47D breast, over 100 µM. Besides, the TGI in the assay on A498 renal was over 100 µM; with BT-549 breast it was 84.5 µM; in the assay with RPMI-8226 leukemia, 35.1 µM; with SK-MEL-2 melanoma it was 58.6 µM; in the assay with SK-OV-3 ovarian it was over 100 µM; in the assay with SNB-75 CNS, over 100 µM. Besides, the TGI in the assay with SW-620 colon and with T-47D breast was over 100 µM throughout.

Turning to `COc1ccccc1/C=C/c1cnccn1`, the TGI in the assay on A498 renal, in the assay on BT-549 breast, in the assay with RPMI-8226 leukemia, with SK-MEL-2 melanoma, in the assay with SK-OV-3 ovarian and in the assay on SNB-75 CNS was over 10 µM each time. For the same compound, the TGI in the assay with SW-620 colon and in the assay on T-47D breast was over 10 µM in each case.
